{
  "source": "patent US20230322805A1",
  "about": "“NOVEL PYRIMIDODIAZEPINE DERIVATIVES OR USES THEREOF” (SPARK BIOPHARMA, INC., priority 2020, published 2023)",
  "key": {"[1]": {"system": "BiFC-tau Venus HEK293 cells (tau aggregation, hTau441)", "assay": "BiFC-tau Venus HEK293 cell assay monitoring tau aggregation under thapsigargin", "type": "cell-based, human", "method": "Phenotype-based screening to monitor tau assembly was performed using BiFC-tau Venus HEK293 cells in a high-throughput manner. Cells were seeded in 384-well plates at a density of 2.8×10^3 cells/well in 40 μL medium for 24 hours. Cells were treated with 80 nM thapsigargin (Sigma-Aldrich) in 10 μL medium and then ˜ 3,000 pDOS library compounds (10 μM), including compounds according to the present invention, using a 0.1 μL pinning tool. For knockdown experiments, cells were transfected with 5 or 10 nM siRNA using Lipofectamine RNAiMAX and incubated for 48 hours before thapsigargin treatment. […] Plates were scanned on an INCell Analyzer 2000 (GE Healthcare) at λex/λem=490/525 nm for Venus fluorescence (for the FITC channel) and λex/λem=350/455 nm for nuclei (for the DAPI channel). Bright-field images were taken to confirm cell morphology, and images were analyzed to quantify Venus intensity per cell using developer software (GE Healthcare).\n1-1. According to the method described in Examples 1-15 above, the expression of Venus-based bimolecular fluorescence complemented-tau (BiFC-tau) was confirmed using HEK293 human embryonic kidney cells, thereby phenotyping the phenotype-based screening was performed.\nThe N-terminal Venus (VN173) and C-terminal Venus (VC155) fragment sequences are fused with the full-length human tau (hTau441) sequence to form the BiFC-tau Venus HEK293 cell system. Soluble tau dimers can be measured by monitoring the turn-on/off signal of Venus fluorescence through co-expression of the two fused vectors, hTau441-VN173 and hTau441-VC1 55.\nAs a stimulator of tau aggregation, thapsigargin (TG; an ER stress inducer), a direct inhibitor of sarco/endoplasmic reticulum Ca2^+-ATPase, was used. This disrupts calcium homeostasis. Thapsigargin treatment induces tau dimerization (tau aggregation), which can be confirmed by BiFC-tau Venus fluorescence turn-on."}, "tau P301L": {"system": "tau P301L", "assay": "Level of aggregation-prone mutant protein after treatment", "type": "cell-based", "details": "SB1617 treatment", "description": "(§1) Plasmids pRK5-EGFP-Tau (#46904) and pRK-EGFP-Tau P301 L (#46908) were purchased from Addgene. Plasmids pCMV-SOD1-EGFP and pCMV-SOD1 G93A-EGFP were provided by Seoul National University College of Medicine. Plasmids were transfected in HEK293T cells using Lipofectamine and Opti-MEM (Gibco) based on the manufacturer's instructions. Short interfering RNA duplex (siRNA duplex, BIONEER) for PDIA3 and DNAJC3 was used for PDIA3 and DNAJC3 knockdown experiments. siRNA oligonucleotides were transfected in HEK293 cells stably expressing BiFC-tau using Lipofectamine RNAiMAX (ThermoFisher Scientific) and Opti-MEM (Gibco) based on the manufacturer's instructions.\n(§2) 5-6. From the results of Test Examples 5-1 to 5-5, it was hypothesized that if SB1617, a pyrimidiazepine derivative from this invention, regulates protein homeostasis, it will be able to effectively control the level of other proteins that tend to be folded and accumulated incorrectly under ER stress conditions. To confirm this, changes in the level of other aggregation-oriented proteins according to SB1617 treatment were confirmed.\n(§3) Tau P301 L is found in FTD patients with Parkinson's disease and is known to accelerate tau aggregation and accumulation in the mouse brain. Htt-Q74 refers to a polyglutamine dilated mutation that causes Huntington's disease. The SOD1 (G93A) mutation level is one of the clinical characteristics of ALS patients."}, "SOD1 (G93A)": {"system": "SOD1 (G93A)", "assay": "Level of aggregation-prone mutant protein after treatment", "type": "cell-based", "details": "SB1617 treatment", "description": "as §1, §2, §3"}},
  "data": [
    {"smiles": "CN(Cc1ccc(Cl)cc1)c1ncnc2c1[C@@H]1OC[C@H](CN2)N1S(=O)(=O)c1ccc([N+](=O)[O-])cc1", "note": "[Compound 117]", "values": [
      {"measurement": "BiFC-Venus fluorescence induced by thapsigargin (FITC channel image)", "setting": "[1]; 10 μM SB1617 with 80 nM thapsigargin, 24 hours", "value": "suppresses BiFC-Venus fluorescence"},
      {"measurement": "IC50", "setting": "[1]; Homo sapiens, HEK293, inhibition of BiFC-tau Venus fluorescence, 80 nM thapsigargin, table head prints no unit, μM, read-out: BiFC-tau intensity (IC50)", "value": 1.9, "unit": "µM"},
      {"measurement": "activity at 10 µM", "setting": "[1]; Homo sapiens, HEK293-BiFC-tau-Venus cells co-treated with 10 μM compound and 80 nM thapsigargin for 24 hours, read-out: BiFC-tau intensity (%)", "value": 36, "unit": "%"},
      {"measurement": "change in Venus fluorescence intensity", "setting": "[1]; various concentrations with 80 nM TG for 20 hours", "value": "dose dependent"},
      {"measurement": "mutation level of tau P301L", "setting": "tau P301L", "value": "downregulated"},
      {"measurement": "mutation level of SOD (G93A)", "setting": "SOD1 (G93A)", "value": "downregulated"}
    ]}
  ]
}
